The first data set deals with human M3 receptor (Homo sapiens (Human), UniProt P20309). In words: Muscarinic 3 receptor binding assay (3H-scopolamine displacement).
Sequence of human M3 receptor (P20309 whole entry): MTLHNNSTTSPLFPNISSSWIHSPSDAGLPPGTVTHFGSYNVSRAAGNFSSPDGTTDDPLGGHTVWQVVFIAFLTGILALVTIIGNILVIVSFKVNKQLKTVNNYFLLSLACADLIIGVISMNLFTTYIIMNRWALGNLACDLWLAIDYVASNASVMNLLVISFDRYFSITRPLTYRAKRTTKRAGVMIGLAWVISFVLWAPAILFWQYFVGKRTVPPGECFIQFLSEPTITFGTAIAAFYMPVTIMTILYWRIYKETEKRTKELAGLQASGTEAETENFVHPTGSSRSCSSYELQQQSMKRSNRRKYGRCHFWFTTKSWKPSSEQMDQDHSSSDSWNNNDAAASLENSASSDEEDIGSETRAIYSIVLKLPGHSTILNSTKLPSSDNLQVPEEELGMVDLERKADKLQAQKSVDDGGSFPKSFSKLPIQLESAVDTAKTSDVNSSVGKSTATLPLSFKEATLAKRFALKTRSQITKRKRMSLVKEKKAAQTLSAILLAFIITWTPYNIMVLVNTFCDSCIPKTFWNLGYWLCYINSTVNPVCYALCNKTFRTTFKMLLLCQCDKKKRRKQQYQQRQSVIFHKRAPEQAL
Conditions: not given
As to the method:
The muscarinic 3 receptor binding assay was adapted from Perkin Elmer. […] Atropine (Sigma-Aldrich, St. Louis, Mo.) was used as a positive control. […] The reaction mixtures were then added to matrix 96-well GFC filtration microtiter plates that had been previously pretreated with 0.5% polyethylimine (100 μL) for 4 h and filtered. The binding reactions were terminated by filtering through the GFC plates and washing & filtering with ice-cold phosphate saline buffer (5×100 μL). Once the filters were dry, microscint scintillation cocktail (100 μL) was added to each well, allowed to sit for 20 min and the plates analyzed using a TopCount scintillation counter. […] Curve fitting of % inhibition versus concentration using Excell software allowed determination of IC50 values for test compounds.
For orientation: IC50 means the point on the concentration scale where inhibition reaches its midpoint. Read a high IC50 as weaker potency in that assay. Consider `O=C(N1CCN(CCc2ccccc2)CC1)C(O)(c1ccccc1)C1CCCC1` (stereo not drawn) [Compound 7f], for which the concentration for half-maximal inhibition (IC50) came out at 4700 nM.

Compound `O=C(CN1CCN(C(=O)C(O)(c2ccccc2)C2CCCC2)CC1)c1ccccc1` (stereo not drawn) [Compound 9h] showed an IC50 of 2700 nM. Still for that read-out and setting: for `COc1ccc(CCN2CCN(C(=O)C(O)(c3ccccc3)C3CCCC3)CC2)cc1` (stereo not drawn) [Compound 9d] the value was 357 nM. For `O=C(N1CCN(CCOc2ccccc2)CC1)C(O)(c1ccccc1)C1CCCC1` (stereo not drawn) [Compound 9c], the IC50 came to 1200 nM. Still for that read-out and setting: for `O=C(N1CCN(CCCc2ccccc2)CC1)C(O)(c1ccccc1)C1CCCC1` (stereo not drawn) [Compound 7d] the value was 63 nM; for `O=C(N1CCN(CC(O)c2ccccc2)CC1)C(O)(c1ccccc1)C1CCCC1` (stereo not drawn) [Compound 11], 4300 nM. On the same count and under the same terms, next, `O=C(C(c1ccccc1)C1CCCC1)N1CCN(CCc2ccccc2)CC1` (stereo not drawn) [Compound 7a]: 1800 nM. `O=C(N1CCN(C/C=C/c2ccccc2)CC1)C(O)(c1ccccc1)C1CCCC1` (stereo not drawn) [Compound 7e] registered an IC50 of 195 nM. The same measure, in the same setting: for `CC(Cc1ccc2c(c1)OCO2)CN1CCN(C(=O)C(O)(c2ccccc2)C2CCCC2)CC1` (stereo not drawn) [Compound 7i] the value was 4600 nM.

Staying with this data set, now noted: CHO cell membranes expressing human M3 receptor, 3H-scopolamine.
The compound `O=C(C(c1ccccc1)C1CCCC1)N1CCN(CCC2CCCCC2)CC1` (stereo not drawn) [Compound 9a] had an IC50 of 6000 nM.

Compound `O=C(C(c1ccccc1)C1CCCC1)N1CCN(C/C=C/c2ccccc2)CC1` (stereo not drawn) [Compound 7c] gave an IC50 of 599 nM. As to `CN1CCCN(C(=O)C(c2ccccc2)C2CCCC2)CC1` (stereo not drawn) [Compound 3f], the IC50 was determined as 409 nM. Still for that read-out and setting: next, `O=C(C(c1ccccc1)C1CCCC1)N1CCN(CCCc2ccccc2)CC1` (stereo not drawn) [Compound 7b]: 2100 nM; `CCCCCCN1CCN(C(=O)C(c2ccccc2)C2CCCC2)CC1` (stereo not drawn) [Compound 3d]: 7900 nM.

Turning to `CN1CCN(C(=O)C(c2ccccc2)C2CCCC2)CC1` (stereo not drawn) [Compound 3b], the half-inhibitory concentration (IC50) worked out at 2100 nM. On the same count and under the same terms, for `CN1CCN(C(=O)C(c2ccccc2)C2CCCCC2)CC1` (stereo not drawn) [Compound 3a] the value was 5300 nM.

Test system in a further data set: not listed separately
In words: pH measurements of test compound solutions.
Conditions: not given
The format is physicochemical. As to the method:
Equimolar amounts of test compounds were used instead of weight % amounts to ensure a fair (molar-basis) comparison between test compounds. […] The pH of all test solutions was measured @ 22° C. using a Corning pH meter model 430 with a flat surface combo w/RJ electrode. The pH meter was calibrated using standard pH 7 & 12 buffers.
Take `O=C(N1CCCNCC1)C(O)(c1ccccc1)C1CCCC1` (stereo not drawn) [Compound 6j]: the “Measured pH of solution” value is 9.9. In the case of `O=C(N1CCNCC1)C(O)(c1ccccc1)C1CCCC1` (stereo not drawn) [Compound 6b], the “Measured pH of solution” value was determined as 10.0.

The data set is the same for the next values; noted with them: 79 mM (equimolar) in isopropyl alcohol/water, 22° C.
Regarding `CN1CCCNCC1` [Compound 15], the “Measured pH of solution” value was determined as 11.5. For `CN1CCNCC1` [Compound 14], the “Measured pH of solution” value is given as 11.0.

For the next data set, the system named is human living skin equivalents.
Test: not given
Conditions: not given
It is filed as cell-based.
On to `O=C(N1CCN(CCCc2ccccc2)CC1)C(O)(c1ccccc1)C1CCCC1` (stereo not drawn) [Compound 7d], for which the “% Increase in Ki-67 stained positive cells over vehicle” value is on record as 127%.

The record behind these values is patent US10155733B2, “N-aralkylcarbonyl-piperazine and -homopiperazine compounds and personal care compositions comprising the same” (Conopco, Inc., priority 2015, dated 2018).
